Measured values from ChEMBL document CHEMBL1201862, “PubChem BioAssay data set” (2004).
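Exposure lasted 48 hours, with cells grown in 96-well plates and compounds tested at five concentrations. Here, GI50 denotes the concentration required for 50% inhibition of growth.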 The source made the active and inactive calls. Rule as the data show it: active = GI50 up to about 1.1 µM and inactive = higher.

Legend:
Test in all cases: NCI tumour cell line growth inhibition, 48 h
[1] = system: Malme-3M
[2] = system: HCC 2998
[3] = system: A498
[4] = system: IGROV-1
[5] = system: Hs-578T
[6] = system: COLO 205
[7] = system: OVCAR-4
[8] = system: SR
[9] = system: MDA-MB-231
[10] = system: OVCAR-5
[11] = system: NCI/ADR-RES
[12] = system: SF-539
[13] = system: SNB-19
[14] = system: UO-31
[15] = system: ACHN
[16] = system: SK-MEL-5
[17] = system: HOP-62
[18] = system: SW-620
[19] = system: SK-MEL-2
[20] = system: CAKI-1
[21] = system: LOX IMVI
[22] = system: NCI-H460
[23] = system: 786-0
[24] = system: SNB-75
[25] = system: SF-268
[26] = system: NCI-H226
[27] = system: SK-OV-3
[28] = system: DU-145
[29] = system: PC-3
[30] = system: HCT-15
[31] = system: UACC-62
[32] = system: MDA-MB-435
[33] = system: K562
[34] = system: KM12
[35] = system: MOLT-4
[36] = system: MCF7
[37] = system: HOP-92
[38] = system: SK-MEL-28
[39] = system: NCI-H23
[40] = system: TK-10
[41] = system: HT-29
[42] = system: UACC-257
[43] = system: T47D
[44] = system: M14
[45] = system: OVCAR-3
[46] = system: OVCAR-8
[47] = system: SF-295
[48] = system: HL-60
[49] = system: HCT-116
[50] = system: RXF 393
[51] = system: EKVX
[52] = system: U-251
[53] = system: SN12C
[54] = system: BT-549
[55] = system: NCI-H522
[56] = system: RPMI-8226
[57] = system: A549
[58] = system: CCRF-CEM
[59] = system: MDA-N

SMILES: CC(=O)C1=C(C)N(c2ccc(C)cc2)C2(O)C=CC(O)=C3C(=O)c4ccccc4C(=O)C312 (stereo not given)
- GI50 [1]: 1.91 µM (inactive)
- GI50 [2]: 16.8 µM (inactive)
- GI50 [3]: 12.9 µM (inactive)
- GI50 [4]: 7.38 µM (inactive)
- GI50 [5]: 24.2 µM (inactive)
- GI50 [6]: 5.05 µM (inactive)
- GI50 [7]: 12.6 µM (inactive)
- GI50 [8]: 36.9 µM (inactive)
- GI50 [9]: 20.7 µM (inactive)
- GI50 [10]: 23.7 µM (inactive)
- GI50 [11]: 3.78 µM (inactive)
- GI50 [12]: 23.8 µM (inactive)
- GI50 [13]: 22.6 µM (inactive)
- GI50 [14]: 14.1 µM (inactive)
- GI50 [15]: 11.8 µM (inactive)
- GI50 [16]: 7.4 µM (inactive)
- GI50 [17]: 26.9 µM (inactive)
- GI50 [18]: 4.81 µM (inactive)
- GI50 [19]: 7.36 µM (inactive)
- GI50 [20]: 13.5 µM (inactive)
- GI50 [21]: 6.95 µM (inactive)
- GI50 [22]: 7.23 µM (inactive)
- GI50 [23]: 9.14 µM (inactive)
- GI50 [24]: 19.4 µM (inactive)
- GI50 [25]: 15.9 µM (inactive)
- GI50 [26]: 22.8 µM (inactive)
- GI50 [27]: > 100 µM (inactive)
- GI50 [28]: 15.4 µM (inactive)
- GI50 [29]: 16.4 µM (inactive)
- GI50 [30]: 4.49 µM
- GI50 [31]: 10.5 µM (inactive)
- GI50 [32]: 2.33 µM (inactive)
- GI50 [33]: 31.3 µM (inactive)
- GI50 [34]: 7.41 µM (inactive)
- GI50 [35]: 3.05 µM (inactive)
- GI50 [36]: 7.71 µM (inactive)
- GI50 [37]: 55.1 µM (inactive)
- GI50 [38]: 13.1 µM (inactive)
- GI50 [39]: 21.1 µM (inactive)
- GI50 [40]: 23.4 µM (inactive)
- GI50 [41]: 3.89 µM (inactive)
- GI50 [42]: 10.6 µM (inactive)
- GI50 [43]: 9.95 µM (inactive)
- GI50 [44]: 18.6 µM (inactive)
- GI50 [45]: 3.91 µM (inactive)
- GI50 [46]: 16.1 µM (inactive)
- GI50 [47]: 13.7 µM (inactive)
- GI50 [48]: 7.76 µM (inactive)
- GI50 [49]: 5.52 µM (inactive)
- GI50 [50]: 9.04 µM (inactive)
- GI50 [51]: 19.3 µM (inactive)
- GI50 [52]: 18.5 µM (inactive)
- GI50 [53]: 13.6 µM (inactive)
- GI50 [54]: 11 µM (inactive)
- GI50 [55]: 13.7 µM (inactive)
- GI50 [56]: 3.27 µM (inactive)
- GI50 [57]: 18.6 µM (inactive)

SMILES: COC(=O)C1(c2cc3ccccc3n2S(=O)(=O)c2ccccc2)CC2C=CC1NC2 (stereo not given)
- GI50 [2]: 1.98 µM (inactive)
- GI50 [3]: 3.09 µM (inactive)
- GI50 [4]: 1.34 µM (inactive)
- GI50 [6]: 2.17 µM (inactive)
- GI50 [7]: 1.98 µM (inactive)
- GI50 [8]: 0.216 µM (active)
- GI50 [9]: 1.79 µM (inactive)
- GI50 [10]: 2.25 µM (inactive)
- GI50 [11]: 2.42 µM (inactive)
- GI50 [12]: 1.95 µM (inactive)
- GI50 [13]: 2.2 µM (inactive)
- GI50 [14]: 1.48 µM (inactive)
- GI50 [15]: 1.84 µM (inactive)
- GI50 [16]: 6.12 µM (inactive)
- GI50 [17]: 1.66 µM (inactive)
- GI50 [18]: 2.91 µM (inactive)
- GI50 [19]: 1.77 µM (inactive)
- GI50 [20]: 1.82 µM (inactive)
- GI50 [21]: 1.74 µM (inactive)
- GI50 [22]: 3.11 µM (inactive)
- GI50 [23]: 1.94 µM (inactive)
- GI50 [24]: 3.8 µM (inactive)
- GI50 [26]: 8.97 µM (inactive)
- GI50 [27]: 3.41 µM (inactive)
- GI50 [28]: 2.4 µM (inactive)
- GI50 [29]: 1.61 µM (inactive)
- GI50 [30]: 1.75 µM
- GI50 [31]: 1.62 µM (inactive)
- GI50 [32]: 1.63 µM (inactive)
- GI50 [33]: 1.77 µM (inactive)
- GI50 [34]: 2.47 µM (inactive)
- GI50 [35]: 1.62 µM (inactive)
- GI50 [36]: 1.5 µM (inactive)
- GI50 [37]: 1.52 µM (inactive)
- GI50 [38]: 2.67 µM (inactive)
- GI50 [39]: 2.18 µM (inactive)
- GI50 [40]: 2.28 µM (inactive)
- GI50 [41]: 1.79 µM (inactive)
- GI50 [42]: 2.22 µM (inactive)
- GI50 [58]: 0.735 µM (active)
- GI50 [43]: 3.24 µM (inactive)
- GI50 [44]: 1.79 µM (inactive)
- GI50 [45]: 2.29 µM (inactive)
- GI50 [59]: 2.13 µM (inactive)
- GI50 [46]: 1.95 µM (inactive)
- GI50 [47]: 2.91 µM (inactive)
- GI50 [48]: 1.94 µM (inactive)
- GI50 [49]: 2.23 µM (inactive)
- GI50 [50]: 1.76 µM (inactive)
- GI50 [51]: 4.03 µM (inactive)
- GI50 [52]: 1.43 µM (inactive)
- GI50 [53]: 2.08 µM (inactive)
- GI50 [54]: 2.36 µM (inactive)
- GI50 [56]: 0.933 µM (active)
- GI50 [57]: 2.96 µM (inactive)

SMILES: COC1OC(C(=O)O)C2OC(C)(C)OC12 (stereo not given)
- GI50 [1]: > 100 µM (inactive)
- GI50 [2]: > 100 µM (inactive)
- GI50 [4]: > 100 µM (inactive)
- GI50 [6]: > 100 µM (inactive)
- GI50 [7]: > 100 µM (inactive)
- GI50 [8]: > 100 µM (inactive)
- GI50 [9]: > 100 µM (inactive)
- GI50 [10]: > 100 µM (inactive)
- GI50 [11]: > 100 µM (inactive)
- GI50 [12]: > 100 µM (inactive)
- GI50 [13]: > 100 µM (inactive)
- GI50 [14]: > 100 µM (inactive)
- GI50 [15]: > 100 µM (inactive)
- GI50 [16]: > 100 µM (inactive)
- GI50 [17]: > 100 µM (inactive)
- GI50 [18]: > 100 µM (inactive)
- GI50 [19]: > 100 µM (inactive)
- GI50 [20]: > 100 µM (inactive)
- GI50 [21]: > 100 µM (inactive)
- GI50 [22]: > 100 µM (inactive)
- GI50 [23]: > 100 µM (inactive)
- GI50 [24]: > 100 µM (inactive)
- GI50 [25]: > 100 µM (inactive)
- GI50 [26]: > 100 µM (inactive)
- GI50 [27]: > 100 µM (inactive)
- GI50 [28]: > 100 µM (inactive)
- GI50 [29]: > 100 µM (inactive)
- GI50 [30]: > 100 µM
- GI50 [31]: > 100 µM (inactive)
- GI50 [32]: > 100 µM (inactive)
- GI50 [33]: > 100 µM (inactive)
- GI50 [34]: > 100 µM (inactive)
- GI50 [35]: > 100 µM (inactive)
- GI50 [36]: > 100 µM (inactive)
- GI50 [37]: > 100 µM (inactive)
- GI50 [38]: > 100 µM (inactive)
- GI50 [39]: > 100 µM (inactive)
- GI50 [40]: > 100 µM (inactive)
- GI50 [41]: > 100 µM (inactive)
- GI50 [42]: > 100 µM (inactive)
- GI50 [58]: > 100 µM (inactive)
- GI50 [44]: > 100 µM (inactive)
- GI50 [45]: > 100 µM (inactive)
- GI50 [59]: > 100 µM (inactive)
- GI50 [46]: > 100 µM (inactive)
- GI50 [47]: > 100 µM (inactive)
- GI50 [49]: > 100 µM (inactive)
- GI50 [50]: > 100 µM (inactive)
- GI50 [51]: > 100 µM (inactive)
- GI50 [52]: > 100 µM (inactive)
- GI50 [53]: > 100 µM (inactive)
- GI50 [54]: > 100 µM (inactive)
- GI50 [55]: > 100 µM (inactive)
- GI50 [56]: > 100 µM (inactive)
- GI50 [57]: > 100 µM (inactive)

SMILES: CS(=O)(=O)OCCn1c(=O)n(CCOS(C)(=O)=O)c(=O)n(CCOS(C)(=O)=O)c1=O
- GI50 [1]: > 100 µM (inactive)
- GI50 [2]: > 100 µM (inactive)
- GI50 [3]: > 100 µM (inactive)
- GI50 [4]: > 100 µM (inactive)
- GI50 [6]: > 100 µM (inactive)
- GI50 [7]: > 100 µM (inactive)
- GI50 [8]: > 100 µM (inactive)
- GI50 [9]: > 100 µM (inactive)
- GI50 [10]: > 100 µM (inactive)
- GI50 [11]: > 100 µM (inactive)
- GI50 [12]: > 100 µM (inactive)
- GI50 [13]: > 100 µM (inactive)
- GI50 [14]: > 100 µM (inactive)
- GI50 [15]: > 100 µM (inactive)
- GI50 [16]: > 100 µM (inactive)
- GI50 [17]: > 100 µM (inactive)
- GI50 [18]: > 100 µM (inactive)
- GI50 [20]: > 100 µM (inactive)
- GI50 [21]: 36.3 µM (inactive)
- GI50 [22]: > 100 µM (inactive)
- GI50 [23]: > 100 µM (inactive)
- GI50 [24]: > 100 µM (inactive)
- GI50 [25]: > 100 µM (inactive)
- GI50 [26]: > 100 µM (inactive)
- GI50 [27]: > 100 µM (inactive)
- GI50 [28]: > 100 µM (inactive)
- GI50 [30]: > 100 µM
- GI50 [31]: > 100 µM (inactive)
- GI50 [32]: > 100 µM (inactive)
- GI50 [33]: > 100 µM (inactive)
- GI50 [34]: > 100 µM (inactive)
- GI50 [35]: > 100 µM (inactive)
- GI50 [36]: > 100 µM (inactive)
- GI50 [38]: > 100 µM (inactive)
- GI50 [39]: > 100 µM (inactive)
- GI50 [40]: > 100 µM (inactive)
- GI50 [41]: > 100 µM (inactive)
- GI50 [42]: > 100 µM (inactive)
- GI50 [58]: > 100 µM (inactive)
- GI50 [43]: > 100 µM (inactive)
- GI50 [45]: > 100 µM (inactive)
- GI50 [59]: > 100 µM (inactive)
- GI50 [46]: > 100 µM (inactive)
- GI50 [47]: > 100 µM (inactive)
- GI50 [48]: > 100 µM (inactive)
- GI50 [49]: > 100 µM (inactive)
- GI50 [50]: > 100 µM (inactive)
- GI50 [51]: > 100 µM (inactive)
- GI50 [52]: > 100 µM (inactive)
- GI50 [53]: > 100 µM (inactive)
- GI50 [54]: > 100 µM (inactive)
- GI50 [56]: > 100 µM (inactive)
- GI50 [57]: > 100 µM (inactive)
